Assay results as given in patent US8188312B2, “Acyclic sulfamide derivatives” (Fundacion Imabis. Instituto Mediterraneo para el Avance de …, priority 2006, dated 2012).
Entries after “also recorded” stand apart in the source; their conditions may differ.

How the values were obtained:
human PPARα = biological target: T1, human PPARα (Homo sapiens, UniProt Q07869); experiment: Luciferase reporter gene assay (RGA) in transfected MCF-7 cells; assay type: cell-based; conditions: for induction of the basal level of PPARα on the PPRE (relative luciferase activity): endogenous coregulator levels, 10 μM WY14643, 1 μM OEA and analogs; for induction of the basal level of PPARα on the PPRE (relative luciferase activity) / induction of luciferase activity with overexpression of TIF2: MCF-7 cells, 16 h; for activation of PPARα (receptor-mediated transcription): summary statement; for induction of luciferase activity with overexpression of TIF2: TIF2 cotransfected, 1 μM
T1 construct: expressed in transfected cells; host or cells: MCF-7 human breast cancer cells, transiently transfected (DOTAP)
T1 sequence (Q07869 1-468): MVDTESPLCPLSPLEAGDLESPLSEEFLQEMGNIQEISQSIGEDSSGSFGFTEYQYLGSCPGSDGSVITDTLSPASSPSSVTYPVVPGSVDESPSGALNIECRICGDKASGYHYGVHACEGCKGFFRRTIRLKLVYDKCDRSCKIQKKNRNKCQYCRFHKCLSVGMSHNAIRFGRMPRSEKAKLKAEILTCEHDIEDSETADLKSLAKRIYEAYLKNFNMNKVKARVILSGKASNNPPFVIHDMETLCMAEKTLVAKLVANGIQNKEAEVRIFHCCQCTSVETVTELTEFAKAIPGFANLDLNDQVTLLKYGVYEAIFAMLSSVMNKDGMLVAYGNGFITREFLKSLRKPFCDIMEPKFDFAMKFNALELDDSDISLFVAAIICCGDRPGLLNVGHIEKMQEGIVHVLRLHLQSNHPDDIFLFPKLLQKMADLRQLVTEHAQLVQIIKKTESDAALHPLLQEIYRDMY
Description: FIG. 2: Agonistic action of OEA and analogs. Luciferase reporter gene assays were performed with extracts from MCF-7 cells that were transiently transfected with a luciferase reporter construct containing three copies of the human ACO of PPRE. (A) Wild type human PPARα expression vector was also cotransfected as indicated. Cells were treated for 16 h with solvent (DMSO), and different concentrations (*10^−8, *10^−7, **10^−6 and **10^−5 M) of OEA, compound 2, or *10^−7, **10^−6 and **10^−5 M of anandamide (AEA, used as a negative control), 7 (*10^−8, *10^−7, **10^−6 and **10^−5 M) and 12 (*10^−7, **10^−6 and **10^−5 M). (*p<0.05, (**) p<0.01 vs vehicle, #p<0.01 vs vehicle and without ACO) (B) Wild type human PPARα expression as well as plasmids coding full length TIF2 were also cotransfected as indicated. Cells were treated for 16 h with solvent (DMSO), 10 μM WY14643, 1 μM OEA and its analogs 2, 7 and 12. Relative luciferase activities were measured in reference to solvent-induced cells not overexpressing any protein. Columns represent the mean of at least three experiments and bars indicate SD. (*p<0.01 vs vehicle, #p<0.01 vs vehicle and without TIF2).
Breast cancer human cells MCF-7 were seeded in a 6-well culture plate (10^5 cells/mL) and cultured in a Dulbecco modified Eagle medium (DMEM) free from phenol red, supplied with 5% of fetal bovine serum (FBS) treated with carbon (Macias-Gonzalez, M et al. Mol. End. 17 (2003): 2028).
The liposomes with DNA plasmids were obtained by incubation of 1 μg of the reporter plasmid with luciferase and the wild type human PPAR-α expression vector with 10 μg of N-1-(2,3-dioleyloxi)-propyl-N,N,N-trimethylammonium (DOTAP from Roche Diagnostics) for 15 minutes at room temperature in a total volume of 100 μL. After the dilution with 900 μL of DMEM free from phenol red, the liposomes were added to the cells. 4-5 h after the transfection of the cells, the DMEM free from phenol red supplemented with 500 μL of FBS treated with carbon at 15% was added, in this case with the PPAR-α ligands (OEA, AEA and sulfamides derivatives) or control solvents (DMSO) at different concentrations of 10^−8, 10^−7, 10^−6 and 10^−5 M.
The cells were lysed 16 hours after the beginning of the stimulation with the reporter gene lysis buffer (Roche Diagnostics) and the reporter gene assay or RGA luciferase of constant luminous signal was carried out following the manufactures recommendations (Roche Diagnostics). The luciferase activities were standardized with regard to the protein concentration and the induction factors were calculated as the ratio of luciferase activity of ligand stimulated cells in relation to the solvent controls (Vaisanen, S. et al. Mol. Pharmacol. 62 (2002):788).

[1] = Food intake study: acute treatment in food-deprived rats; assay type: in vivo, male Wistar rats; conditions: i.p., rats food-deprived 24 h; 30, 60, 120 and 240 min
Description: FIG. 3: Activity of OEA analogs as feeding suppressants. Food intake in food-deprived animals was tested 30, 60, 120 and 240 min after the i.p injection of the different compounds synthesized at different doses. Here we show results for compounds 2 (A), 7 (B), 12 (C), 19 (D) and 20 (E). […] Results are means±SEM of at least three determinations per group. (*) p<0.05, (**) p<0.01, (***) p<0.001, versus vehicle, ANOVA.
The effects of the different compounds on feeding behaviour were analyzed in male Wistar rats deprived of food for 24 hours, which were accustomed to its manipulation (Navarro, M et al. 1996 J. Neurochem. 67 (1996):1982. Rodriguez de Fonseca, F. et al. Nature 414 (2001):209. Fu, J et al. Nature, 425 (2003):90). For this aim, 48 hours before every assay rats were set out in single cages, the base material (sand or sawdust) was removed and little food containers were set out into the cage for 4 hours. After this initial phase, animals were deprived of food for 24 hours, always with free access to water. After 24 hours of fast, different treatment groups were established (N=8-10 every group) and different doses of the sulfamide corresponding to each experimental session were administrated i.p. in their vehicle solution in a volume of 1 mL/kg, as well as a control group only treated with the vehicle: • 1) Group treated with a 0.03 mg/kg dose of the sulfamide in vehicle solution. • 2) Group treated with a […] dose of the sulfamide in vehicle. • 3) Group with a 3 mg/kg dose of the corresponding sulfamide in vehicle. • 4) Control group treated with the vehicle tween-80 at 5% in physiological serum.
15 minutes after the administration, the containers with a known food amount (normally 30-40 g) and a bottle of fresh water were placed. These containers were weighted 30, 60, 120 and 240 minutes after their presentation, so that the food ingested by each animal was controlled.

[2] = Subchronic treatment in genetically obese Zucker rats; assay type: in vivo; conditions: 11 days, 1 mg/kg i.p. daily
Excerpt: (§1) FIG. 4: Effects of chronic treatment with 7 (N-octadecyl-N′-propylsulfamide) on body weight gain and plasma triglycerides. […] Results are means±SEM of at least three determinations per group. (*) p<0.05, versus vehicle, ANOVA.
To further explore the anti-obesity properties of this compound, we used an additional animal model of obesity.

[3] = Food intake studies: chronic treatment, body weight and plasma triglycerides; assay type: in vivo, male Wistar rats
Description: as §1
A chronic treatment with the compounds was carried out using male Wistar rats which were accustomed to its manipulation.
For this aim, rats were set out in single cages keeping the base material (sand or sawdust). After an adaptation phase to the conditions of the husbandry where the assay was carried out, three different groups (N=8 every group) were established according to the received treatment: • 1) Group treated with example 6 in its vehicle solution with a 1 mg/kg dose. • 2) Group treated with tween-80 vehicle at 5% in physiological serum. • 3) Control group treated with physiological serum.
The total duration of the experiment was eight days, with two i.p. daily administrations (injected volume of 1 mL/kg) of the different solutions with an interval of 12 hours between both injections. Everyday and previously to the administration at 8:00, each animal was weighted. During the total time of the assay, the single weight of each animal and the biochemical parameters in serum were daily controlled.

[4] = cited from earlier work
[5] = 8 days, 1 mg/kg i.p., normal rats, vs vehicle, 1 mg/kg

For `CCCCCCCCCCCCCCNS(=O)(=O)NCCC` [Compound 9, N-propyl-N′-tetradecylsulfamide], the melting point was 105 to 107 °C.

Molecule `CCCCCCCC/C=C\CCCCCCCCNS(=O)(=O)NCCC` has a melting point of 82 to 83 °C.

With `CCCCCCCCCCCCCCNS(N)(=O)=O` [Compound 4, N-tetradecylsulfamide] the melting point was 99 to 101 °C.

In the case of `CCCCCCCCCCCCCCCCCCNS(=O)(=O)NCCC` [Compound 7, N-octadecyl-N′-propylsulfamide], the “induction of the basal level of PPARα on the PPRE (relative luciferase activity)” value (“induction … (relative luciferase activity)” below) (human PPARα) is reported as ~6 times, the “activation of PPARα (receptor-mediated transcription)” value (“activation of PPARα” below) (human PPARα) is reported as “potent activator of PPARα” and the “food intake / feeding behaviour” value [1] is reported as “potent feeding suppressant”. For the same molecule, the food intake [2] was “reduced”, the “body weight gain (cumulative relative weight gain)” value ([2]; 1 mg/kg) was “reduced body weight gain; also recorded: reduces cumulative relative weight gain” and the melting point was 110 to 112 °C. The body weight [3, 5] was “reduces body weight”, the plasma triglycerides [3, 5] was “marked reduction in plasma triglycerides; also recorded: reduces” and the active dose ([3]; i.p.) was 1 mg/kg.

For `Cc1cccc(Nc2cc(Cl)nc(SCC(=O)O)n2)c1C` [WY14643, reference compound], the “induction … (relative luciferase activity)” value (human PPARα) was ~6 times.

In the case of `CCCCCCCC/C=C\CCCCCCCC(=O)NCCO` [OEA], the “induction … (relative luciferase activity)” value (human PPARα) is listed as ~6 times, the “dose at which hypolipemiant effects are present” value ([4]; described in the literature) is listed as “greater than 5 mg/kg” and the “food intake (literature finding)” value ([4]; through activation of the nuclear receptor PPARα) is listed as “decrease food intake”.

With `CCCCCCCCCCCCCCCCCCNS(N)(=O)=O` [Compound 2, N-octadecylsulfamide] the “induction of luciferase activity with overexpression of TIF2” value (human PPARα) was “did not provide significantly higher induction”, the “induction … (relative luciferase activity)” value (human PPARα) was “did not provide induction” and the “activation of PPARα” value (human PPARα) was “did not activate PPAR receptor-mediated transcription; also recorded: does not activate PPARα”. The “food intake / feeding behaviour” value [1] was “clearly reduced food intake; also recorded: reduces feeding behaviour” and the melting point was 105 to 107 °C.

With `CCCCCCCCCCCCCCCCNS(=O)(=O)NCCC` [Compound 8, N-hexadecyl-N′-propylsulfamide] the melting point was 108 to 110 °C.

With `CCCCCCCC/C=C\CCCCCCCCNS(N)(=O)=O` [Compound 1, N-(cis-9-octadecenyl)sulfamide] the melting point was 68 to 70 °C.

`CCCCCCCCCCCCCCCCNS(N)(=O)=O` [Compound 3, N-hexadecylsulfamide] showed a melting point of 102 to 104 °C.

For `CCCNS(=O)(=O)NC12CC3CC(CC(C3)C1)C2` [Compound 12, N-propyl-N′-adamantylsulfamide], the “induction of luciferase activity with overexpression of TIF2” value (human PPARα) was “did not provide significantly higher induction”, the “induction … (relative luciferase activity)” value (human PPARα) was “did not provide induction” and the “activation of PPARα” value (human PPARα) was “neither activates PPARα”. For the same molecule, the “food intake / feeding behaviour” value [1] was “nor suppress food intake”.
